Tested on: persistent post-viral cough
Experiment: Treatment of patients with persistent post-viral cough (case reports and the inventors' clinical experience)
Assay type: in vivo, human
Text: As opposed to what is found in the medical literature, in the usual patient that we have observed and treated for sub-acute or chronic cough after viral respiratory infection, evidence for post-nasal drip, sinusitis, asthma, or gastroesophageal reflux has been lacking. Physical examination of the nose, throat, sinuses, and chest has been unremarkable as have chest x-ray, and simple pulmonary function tests. Antihistamines and decongestants as might be used for post-nasal drip have proven disappointing and have rarely afforded relief of the persistent cough when tried. Antibiotic treatments likewise have been effective to alleviate cough only in rare instances. […] We have been surprised by the regularity with which this treatment has proven effective.
Because the respiratory tract is a continuous conduit, topical medications can be applied to the airways surface in aerosol form. The term “aerosol” as used herein is as conventionally defined to indicate either a liquid or solid particle suspended in gas. Many chemical entities in aerosol delivery devices, both liquid and solid, have been developed and marketed for treating respiratory disorders. These include aerosol medications for application to the nose or for inhalation through the mouth. We have utilized a variety of inhaled topical corticosteroid aerosols to treat persistent post-viral cough and have found them all to be generally effective. The following are two examples of aerosols and regimens that we have found effective: • Beclovent Inhalation Aerosol (beclomethasone diprroprionate, USP): two to three sprays t.i.d. for six days. • Pulmicort Turbuhaler® 200 mcg (budesonide powder): one spray t.i.d. for six days.
The inventors have improvised treatment for protracted post-viral cough in our patients by utilizing commercially available multi-dose corticosteroid aerosol inhalers that are not indicated for that purpose. These typically provide enough chemical agent for a 29-30 day period. They are neither labeled for short-term use or for treatment of post-viral cough. While we have not encountered medicinal side effects in our treated patients, a general principal of pharmacologic treatment is to avoid overuse of medication. The desirability to minimize treatment and minimize the use of corticosteroids in particular is well recognized. On occasion, the inventors have utilized smaller size inhaler samples with fewer dosing actuations that have been available through the courtesy of pharmaceutical representatives. Although less consistently available, the devices with lesser number of actuations are considered preferable to prevent inadvertent or purposeful overuse of medication. An aerosol device containing a corticosteroid agent for treatment of about two weeks or less is preferred, and about 7 days is most preferred. It is to be noted that, lacking labeling, no inhaled corticosteroid aerosol used experimentally by the inventors comprises a “drug” to treat the persistent post-viral cough patients as herein described.
The following case reports further exemplify the present invention: • 1. A person with no previous respiratory history had initial symptoms consisting of nasal congestion, rhinorrhea, post-nasal drip, and dry cough. All symptoms but cough resolved within two week and dry cough persisted for 28 days from onset.
We have likewise found prompt response to a short course treatment of inhaled corticosteroid in these individuals, for example: […]

Compound	subsequent resolution of cough (case 1: 2 sprays (40 mcg@) tid for six days, after one week)	recurrence of cough (case 1: 2 sprays (40 mcg@) tid for six days, no further medication required)	improvement of cough at one week (case 1: dry cough for 28 days, 2 sprays (40 mcg@) tid for six days, slight residual in AM)	recurrence of cough (case 2: 2 sprays (40 mcg@) tid for five days)	resolution of cough (case 2: cough for 25 days, 2 sprays (40 mcg@) tid for five days)	recurrence of cough (case 3: 2 sprays (40 mcg@) tid for five days)	resolution of cough (case 3: severe dry cough for 22 days, 2 sprays (40 mcg@) tid for five days)	recurrence of cough (case 4: 2 sprays (40 mcg@) tid for ten days)	resolution of cough (case 4: severe dry cough for 6 weeks, 2 sprays (40 mcg@) tid for ten days)	resolution of symptoms (case 2: five-day course, 500 mg per day, initial cold symptoms with productive cough)	improvement of cough (case 4: 500 mg per day for five days)
C[C@H]1C[C@H]2[C@@H]3CCC4=CC(=O)C=C[C@]4(C)[C@@]3(Cl)[C@@H](O)C[C@]2(C)[C@@]1(O)C(=O)CO [Beclomethasone MDI, Beclomethasone]	complete resolution	did not reoccur	significant improvement of cough	no recurrence of cough	complete resolution of cough	no recurrence	complete resolution of cough	did not reoccur	complete resolution of cough	–	–
CC[C@H]1OC(=O)[C@H](C)[C@@H](O[C@H]2C[C@@](C)(OC)[C@@H](O)[C@H](C)O2)[C@H](C)[C@@H](O[C@@H]2O[C@H](C)C[C@H](N(C)C)[C@H]2O)[C@](C)(O)C[C@@H](C)CN(C)[C@H](C)[C@@H](O)[C@]1(C)O [azithromycin]	–	–	–	–	–	–	–	–	–	all symptoms resolved with the exception of a non-productive “tickling” cough	without improvement of the cough
